Article PMC11714206, “Massively Parallel Screening of Toll/Interleukin‐1 Receptor (TIR)‐Derived Peptides Reveals Multiple Toll‐Like Receptors (TLRs)‐Targeting Immunomodulatory Peptides” (Advanced Science, 2024)
Values belong to the substance of their own block, whether it stands above or below them.

Biological target: T1, MAL^TIR (Homo sapiens, UniProt P58753)
T1 construct: MAL (residues 79–221); 6xHis; made in house; host or cells: E. coli BL21 (DE3)
Assay: T‐Surf phage library (P8 and P3) selection against MAL^TIR, four rounds, NGS read counts
Type: binding
Details: for P8_MAL Rank (after) / P8_MAL Rank (before): P8 library; for P3_MAL Rank (after) / P3_MAL Rank (before): P3 library; for Population: 4th round of selection against MAL TIR, share of NGS reads
Protocol: T‐Surf libraries were screened against the immobilized TIR domains of two major human TLR adaptor proteins, MAL^TIR and MyD88^TIR, allowing cross‐species selection of TIR‐binding motifs with 190 946 TIR‐derived peptides in a single binding assay (Scheme 1). Enriched phage pools from the fourth round of selection were analyzed using NGS after barcoding the peptide‐coding regions of the phage pools.
Phage display screening was performed by coating two wells of a 96‐well plate (Maxisorp, Thermo Fisher Scientific) with 100 µL of 5 µg mL^−1 TIR domains overnight; then, the coated wells were blocked with 200 µL of blocking buffer (0.2% BSA in PBS) and set aside for 1 h at 4 °C with gentle shaking. Next, 100 µL of the phage library was added to the wells and incubated for 1 h at room temperature (RT; 20 – 22 °C) with gentle shaking. The plate was washed four times with PBS containing 0.5% Tween‐20; the bound phages were eluted by adding 100 µL of 100 mM HCl to each well. The elute was neutralized with 10 µL of 1.0 M Tris‐HCl (pH 11.0). E. coli TG1 cells were grown to the log phase (A600 = ≈0.6), and 1 mL of the culture was incubated with 100 µL of the eluted phages for 30 min at 37 °C, with shaking at 200 rpm. Next, 1 µL of M13KO7 helper phages was added, followed by incubation for 45 min at 37 °C, with shaking. Subsequently, the cells were transferred to 25 mL of 2× yeast extract tryptone/carbenicillin/kanamycin medium and incubated overnight at 37 °C with shaking at 200 rpm. The amplified phages were precipitated with 20% PEG‐8000/2.5 M NaCl to be used for the next round of selection.
The naïve T‐Surf libraries in P8 and P3 and the enriched phage pools after four rounds were barcoded for NGS as previously described.^[ [59] ^] Briefly, 5 µL of the phage pool was used as a template for 20 cycles of a 50 µL PCR reaction using […] each of forward and reverse barcoded primers and PrimeSTAR Max DNA Polymerase. The PCR products were purified using Expin Gel SV (GeneAll). The NGS samples were quantified using qPCR, following the qPCR Quantification Protocol Guide (KAPA Library Quantification kits for Illumina Sequencing Platform), and qualified using the TapeStation High Sensitivity D1000 ScreenTape (Agilent Technologies). The indexed libraries were further sequenced by Macrogen (Seoul, Republic of Korea) using the NovaSeq platform (Illumina) with 100 bp paired‐end reads. The reads were demultiplexed by barcodes and filtered for an average Phred quality score of at least 30, followed by trimming the flanking consensus sequences using Cutadapt (version 2.3). Peptide sequence populations were analyzed according to the read counts.

[1] = P3_MAL: rank by count after grouping
[2] = P3_MAL: rank by count before grouping
[3] = selection against MAL TIR, rank by count after grouping
[4] = selection against MAL TIR, rank by count before grouping
[5] = selection against MAL, rank after grouping
[6] = selection against MAL, rank before grouping
[7] = P3_MAL pool: P3 T-Surf phage library
[8] = 4R selection against MAL, rank after grouping
[9] = 4R selection against MAL, rank before grouping
[10] = P8_MAL: rank by count after grouping
[11] = P8_MAL: rank by count before grouping
[12] = selection against MAL, rank by count after grouping
[13] = selection against MAL, rank by count before grouping
[14] = P8_MAL pool: P8 T-Surf phage library

T1 sequence (P58753 79-221): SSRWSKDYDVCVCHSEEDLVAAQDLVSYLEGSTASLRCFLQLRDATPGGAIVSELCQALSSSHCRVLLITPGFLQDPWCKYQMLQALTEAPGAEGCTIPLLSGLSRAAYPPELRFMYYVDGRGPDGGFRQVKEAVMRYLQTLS

Rank (after) [1]: 386
Rank (before) [2]: 1336
Substance: YFLHFLLFSRPETEYI

Rank (after) [1]: 186
Rank (before) [2]: 3419
Substance: NQWSNSLTAAANLSGW

Rank (after) [1]: 452
Rank (before) [2]: 1992
Substance: EWILDTEARIWGWRQA

P8_MAL Rank (after) [8]: 600
P8_MAL Rank (before) [9]: 1514
Substance: YFLQVRLFNLLESDDR

P3_MAL Rank (after) [3]: 197
P3_MAL Rank (before) [4]: 1698
Substance: VRHSFAGYRYDALNRL

P8_MAL Rank (after) [12]: 676
P8_MAL Rank (before) [13]: 2274
Substance: RNNFIGHLYQALYRI

P3_MAL Rank (after) [5]: 506
P3_MAL Rank (before) [6]: 2575
Substance: RSFRDRLWRHLQLNEK

P3_MAL Rank (after) [3]: 195
P3_MAL Rank (before) [4]: 1542
Substance: YTALTNIGFHTFLDND

Rank (after) [10]: 471
Rank (before) [11]: 1796
Substance: AFLWAYLNSVTHPPTF

P3_MAL Rank (after) [5]: 516
P3_MAL Rank (before) [6]: 2047
Substance: ESILNHPRRSSQILSN

P8_MAL Rank (after) [12]: 720
P8_MAL Rank (before) [13]: 2656
Substance: NLWRNALTAAANLSSW

Rank (after) [1]: 171
Rank (before) [2]: 2695
Substance: PNLRTNVLHYLMRTKT

P8_MAL Rank (after) [5]: 493
P8_MAL Rank (before) [6]: 1991
Substance: DPKLNTGESIAPELLR

P3_MAL Rank (after) [12]: 722
P3_MAL Rank (before) [13]: 1886
Substance: DWFLSKLSQHILRHEK

P3_MAL Rank (after) [8]: 630
P3_MAL Rank (before) [9]: 2594
Substance: RNFAGLLYDRLTKWA

P8_MAL Rank (after) [8]: 584
P8_MAL Rank (before) [9]: 2356
Substance: QLIQQWIELQLRQLHL

P8_MAL Rank (after) [8]: 591
P8_MAL Rank (before) [9]: 2191
Substance: RNFVAYLFQALAKKGS

P3_MAL Rank (after) [12]: 685
P3_MAL Rank (before) [13]: 3125
Substance: SSFRVGLCRLMALIQQ

P3_MAL Rank (after) [5]: 501
P3_MAL Rank (before) [6]: 2075
Substance: ESIIYQLHRSSERVAN

P3_MAL Rank (after) [3]: 240
P3_MAL Rank (before) [4]: 2701
Substance: PNLRTKVLAYLNRTKT

P3_MAL Rank (after) [8]: 629
P3_MAL Rank (before) [9]: 2147
Substance: LQNQWKLALTAAANLSGW

Population [7]: 0.0132%
Substance: RLLKWKDALHQFHSWV

P3_MAL Rank (after) [3]: 230
P3_MAL Rank (before) [4]: 2137
Substance: LQNHCKLALTKVANLV

Rank (after) [10]: 392
Rank (before) [11]: 2239
Substance: RNFGNSCVPCWANRR

P8_MAL Rank (after) [8]: 625
P8_MAL Rank (before) [9]: 2560
Substance: TFLGHLYMRWCRRAF

Population [14]: 0.0034%
Substance: WFYERLVSLILRDTKX

Rank (after) [1]: 400
Rank (before) [2]: 2492
Substance: RLLKWKKRCISFIAG

Population [14]: 0.00309%
Substance: WFYERLVSLILRDTIV

P3_MAL Rank (after) [5]: 486
P3_MAL Rank (before) [6]: 2815
Substance: HHNGSYCEALAEHKER

P3_MAL Rank (after) [12]: 719
P3_MAL Rank (before) [13]: 1435
Substance: YAFTGHLQRYLVQRGE

P8_MAL Rank (after) [5]: 497
P8_MAL Rank (before) [6]: 1828
Substance: AFLYTFLGHLYNALVQAGIH

Rank (after) [10]: 414
Rank (before) [11]: 1587
Substance: AFFCEQLRTVIGKPTI

P8_MAL Rank (after) [12]: 685
P8_MAL Rank (before) [13]: 2261
Substance: RNNFFGHLYHALYRIG

P8_MAL Rank (after) [3]: 224
P8_MAL Rank (before) [4]: 2143
Substance: LFLWDSLKQPLRSDGR

P3_MAL Rank (after) [5]: 555
P3_MAL Rank (before) [6]: 1462
Substance: YAFTDHLHRYLVQRSE

Population [14]: 0.00371%
Substance: AFLYTFLINLTIRPIX

P8_MAL Rank (after) [5]: 494
P8_MAL Rank (before) [6]: 1818
Substance: AFLYSFLTNLTHPTEN

P3_MAL Rank (after) [5]: 537
P3_MAL Rank (before) [6]: 1311
Substance: WHLHLRLRMHDLLQQM

P3_MAL Rank (after) [5]: 522
P3_MAL Rank (before) [6]: 3386
Substance: NQWRNALTAAAKLKAPI

P3_MAL Rank (after) [5]: 567
P3_MAL Rank (before) [6]: 3780
Substance: KNLFNEMVSKNIRTYM

Second part, the substance before the results:

Substance: AFLYTFLLNLTHPTNL
P8_MAL Rank (after) [3]: 223
P8_MAL Rank (before) [4]: 1830

Substance: PNLRPKVRNYLIRTKT
P3_MAL Rank (after) [5]: 532
P3_MAL Rank (before) [6]: 2672

Substance: AFLWTYLSNLMHQPTF
P8_MAL Rank (after) [5]: 483
P8_MAL Rank (before) [6]: 1797

Substance: NRWRNALTAAANLSGW
Population [7]: 0.00376%

Substance: AFCWAQLKSVLGNPTR
Rank (after) [10]: 123
Rank (before) [11]: 1781

Substance: YAFTGHRHRYLVKRGV
Rank (after) [1]: 179
Rank (before) [2]: 1445

Substance: LCFRESLKQLLRSNGR
P8_MAL Rank (after) [5]: 535
P8_MAL Rank (before) [6]: 2162

Substance: YAFTGHLHRYLV*RGV
Population [7]: 0.00564%

Substance: YAFTGHLHHYFAAKGIKM
Rank (after) [1]: 385
Rank (before) [2]: 1428

Substance: FMSHLRHHLQAKDH
Rank (after) [1]: 166
Rank (before) [2]: 709

Substance: RFFQNKMRYHLQQLQH
P3_MAL Rank (after) [5]: 487
P3_MAL Rank (before) [6]: 2617

Substance: PNLRTKVLHHLMRTKP
Rank (after) [1]: 405
Rank (before) [2]: 2706

Substance: LKEESWRRALERAGKL
Rank (after) [1]: 410
Rank (before) [2]: 2307

Substance: KERLHQWKLALTQAPI
P3_MAL Rank (after) [8]: 661
P3_MAL Rank (before) [9]: 3604

Substance: LQNQWKLALTKVAKLE
P3_MAL Rank (after) [3]: 236
P3_MAL Rank (before) [4]: 2160

Substance: RVFLSHPRHHLQAKDP
P3_MAL Rank (after) [12]: 700
P3_MAL Rank (before) [13]: 2346

Substance: PVAHEISKKMQLFATI
P3_MAL Rank (after) [8]: 654
P3_MAL Rank (before) [9]: 2631

Substance: AFFWQQLKSVPGNPTM
Rank (after) [10]: 154
Rank (before) [11]: 1718

Substance: LKVESWRQALEKAGT
P3_MAL Rank (after) [5]: 549
P3_MAL Rank (before) [6]: 2274

Substance: YALPAICIVIWCSVA
Rank (after) [1]: 138
Rank (before) [2]: 516

Substance: AFLYTFLKNLTHPTTF
Rank (after) [10]: 97
Rank (before) [11]: 1875

Substance: DLFLSKLSQHLLKREK
Rank (after) [1]: 455
Rank (before) [2]: 1861

Substance: PNLRTKLLNSLMRTKT
P3_MAL Rank (after) [3]: 273
P3_MAL Rank (before) [4]: 2682

Substance: WFMMKFRTVLGKPTM
P8_MAL Rank (after) [3]: 216
P8_MAL Rank (before) [4]: 760

Substance: KWFWDKLIYALSRNPH
P8_MAL Rank (after) [3]: 231
P8_MAL Rank (before) [4]: 1067

Substance: PNLRTKVLNYLMRNKT
Population [7]: 0.00526%

Substance: NQWRNALPAAANLRGW
P3_MAL Rank (after) [3]: 286
P3_MAL Rank (before) [4]: 3349

Substance: YFLLFVLFGRSAIGSM
P8_MAL Rank (after) [12]: 713
P8_MAL Rank (before) [13]: 1459

Substance: RGFLSHRRYHLQAKDH
P3_MAL Rank (after) [5]: 539
P3_MAL Rank (before) [6]: 2396

Substance: YFLHFLLFNRPETNYI
P8_MAL Rank (after) [8]: 597
P8_MAL Rank (before) [9]: 1467

Substance: SSFRKGLCRLLELSKK
Rank (after) [1]: 463
Rank (before) [2]: 3196

Substance: ALQYTILINLTNPTNF
P8_MAL Rank (after) [8]: 665
P8_MAL Rank (before) [9]: 1962

Substance: AFLYTFLINDPSDQF
P8_MAL Rank (after) [3]: 214
P8_MAL Rank (before) [4]: 1836

Substance: KNLFYDLVSKNIRTFM
P3_MAL Rank (after) [12]: 712
P3_MAL Rank (before) [13]: 3473

Substance: DAEDMFWTQLREALDA
P8_MAL Rank (after) [8]: 602
P8_MAL Rank (before) [9]: 1987

Substance: YAFTSHLYDRLPAPQH
P3_MAL Rank (after) [5]: 554
P3_MAL Rank (before) [6]: 1469

Substance: NFLGLLYNELVQAGLH
P8_MAL Rank (after) [3]: 259
P8_MAL Rank (before) [4]: 2675

Substance: LQNQWKLALTKVAHLL
P3_MAL Rank (after) [3]: 219
P3_MAL Rank (before) [4]: 2152

Substance: WHFHLRLRMHDLLQNI
P3_MAL Rank (after) [12]: 738
P3_MAL Rank (before) [13]: 1300

Substance: RGFLSHLRQHLKAKDH
P3_MAL Rank (after) [5]: 497
P3_MAL Rank (before) [6]: 2386

Substance: EWIREQMSPALKERLP
P3_MAL Rank (after) [8]: 617
P3_MAL Rank (before) [9]: 2023

Substance: WFYERLVSLILRATQV
Rank (after) [10]: 474
Rank (before) [11]: 1228

Substance: YFLHLLLFSRPETEYN
P8_MAL Rank (after) [5]: 552
P8_MAL Rank (before) [6]: 1509

Substance: KMQKWKDALTKVASL
P3_MAL Rank (after) [8]: 673
P3_MAL Rank (before) [9]: 3697
